± gives the expanded uncertainty stated by the source.
What was measured:
[1] = refractive index (Na D-line) (dimensionless); conditions: 100 kPa, Liquid, Standard Abbe refractometry
[2] = 100 kPa, Liquid; for viscosity: Capillary tube (Ostwald / Ubbelohde) method; for speed of sound: Frequency=3 MHz, Sing-around technique in a fixed-path interferometer; for mass density: Vibrating tube method
[3] = xn = mol fraction of the nth substance listed; conditions: 100 kPa, Liquid, x2 = 0; for viscosity: Capillary tube (Ostwald / Ubbelohde) method; for speed of sound: Frequency=3 MHz, Sing-around technique in a fixed-path interferometer; for mass density: Vibrating tube method
[4] = refractive index (Na D-line) (dimensionless); xn = mol fraction of the nth substance listed; conditions: 100 kPa, Liquid, Standard Abbe refractometry, x2 = 0

Structure (SMILES)	refractive index ([1]; 283.15 K)	refractive index ([1]; 298.15 K)	refractive index ([1]; 313.15 K)	viscosity ([2]; 283.15 K)	speed of sound ([2]; 283.15 K)	mass density ([2]; 283.15 K)	viscosity ([2]; 298.15 K)	speed of sound ([2]; 298.15 K)	mass density ([2]; 298.15 K)	viscosity ([2]; 313.15 K)	speed of sound ([2]; 313.15 K)	mass density ([2]; 313.15 K)	viscosity ([3]; 283.15 K)	speed of sound ([3]; 283.15 K)	mass density ([3]; 283.15 K)	viscosity ([3]; 298.15 K)	speed of sound ([3]; 298.15 K)	mass density ([3]; 298.15 K)	viscosity ([3]; 313.15 K)	speed of sound ([3]; 313.15 K)	other results
CC(C)O [propan-2-ol]	1.38149 ± 0.00033	1.37505 ± 0.00033	1.36829 ± 0.00033	3.306 ± 0.069 mPa·s	1191.9 ± 1.2 m/s	793.41 ± 0.24 kg/m3	2.051 ± 0.043 mPa·s	1139.2 ± 1.2 m/s	781.07 ± 0.24 kg/m3	1.334 ± 0.028 mPa·s	1086.6 ± 1.2 m/s	768 ± 0.24 kg/m3	–	–	–	–	–	–	–	–	–
CCC(C)O (stereo not drawn) [butan-2-ol] + CC(=O)N(C)C	–	–	–	–	–	–	–	–	–	–	–	–	5.652 ± 0.12 mPa·s	1266 ± 1.3 m/s	814.99 ± 0.24 kg/m3	3.07 ± 0.064 mPa·s	1212.2 ± 1.3 m/s	802.71 ± 0.24 kg/m3	1.796 ± 0.037 mPa·s	1157.6 ± 1.2 m/s	mass density ([3]; 313.15 K): 789.86 ± 0.24 kg/m3; refractive index ([4]; 283.15 K): 1.40126 ± 0.00033; refractive index ([4]; 298.15 K): 1.39515 ± 0.00033; refractive index ([4]; 313.15 K): 1.38878 ± 0.00033
CCC(C)O (stereo not drawn) [butan-2-ol]	1.40126 ± 0.00033	1.39515 ± 0.00033	1.38878 ± 0.00033	5.652 ± 0.12 mPa·s	1266 ± 1.3 m/s	814.99 ± 0.24 kg/m3	3.07 ± 0.064 mPa·s	1212.2 ± 1.3 m/s	802.71 ± 0.24 kg/m3	1.796 ± 0.037 mPa·s	1157.6 ± 1.2 m/s	789.86 ± 0.24 kg/m3	–	–	–	–	–	–	–	–	–
CC(C)O [propan-2-ol] + CC(=O)N(C)C	–	–	–	–	–	–	–	–	–	–	–	–	3.306 ± 0.069 mPa·s	1191.9 ± 1.2 m/s	793.41 ± 0.24 kg/m3	2.051 ± 0.043 mPa·s	1139.2 ± 1.2 m/s	781.07 ± 0.24 kg/m3	1.334 ± 0.028 mPa·s	1086.6 ± 1.2 m/s	mass density ([3]; 313.15 K): 768 ± 0.24 kg/m3; refractive index ([4]; 283.15 K): 1.38149 ± 0.00033; refractive index ([4]; 298.15 K): 1.37505 ± 0.00033; refractive index ([4]; 313.15 K): 1.36829 ± 0.00033

Reference: the NIST ThermoML archive (doi:10.1016/j.tca.2017.06.023)
